Literature values as cited in patent US20210268001A1, “USE OF MIOTIC C[…] F2a PRO[…] FOR PREVENTION AND TREATMENT OF MYOPIA” (priority 2018, published 2021).

Assays:
[1] = system: corneal epithelium epithelial cells
[2] = system: cholinergic receptors; design: unit not given here; settings: reversible acetylcholinesterase inhibitors

O=N[O-].[Na+] [NaNO2]
cytotoxic effect on epithelial cells ([1]; high concentration of NO (100 mM NaNO2), over the same period (6 hs)): cytotoxic effect | viability of epithelial cells ([1]; low concentrations of NO (1 nM to 1 mM NaNO2), 6 hs after application): significantly increased

COc1cc2c(cc1OC)C(=O)C(CC1CCN(Cc3ccccc3)CC1)C2 (stereo not shown) [donepezil]
action time [2]: one to two

CC[N+](C)(C)c1cccc(O)c1 [edrophonium]
action time [2]: one to two

CN(C)C(=O)Oc1cccc([N+](C)(C)C)c1 [neostigmine]
action time [2]: one to two

CN(C)C(=O)Oc1ccc[n+](C)c1 [pyridostigmine]
action time [2]: one to two

CCN(C)C(=O)Oc1cccc([C@H](C)N(C)C)c1 [rivastigmine]
action time [2]: one to two
